PMC8745345, “Hydroxy Pentacyclic Triterpene Acid, Kaempferol, Inhibits the Human 5-Hydroxytryptamine Type 3A Receptor Activity” (International Journal of Molecular Sciences, 2022)
Changes are numbered by the printed parent chain.

How the values were obtained:
[1] = target: T1, human 5-HT3A receptor I180A mutant (Homo sapiens, UniProt P46098, V202A); test: Two-electrode voltage clamp, I5-HT inhibition, I180A mutant; format: cell-based
T1 sequence (P46098 24-478 V202A): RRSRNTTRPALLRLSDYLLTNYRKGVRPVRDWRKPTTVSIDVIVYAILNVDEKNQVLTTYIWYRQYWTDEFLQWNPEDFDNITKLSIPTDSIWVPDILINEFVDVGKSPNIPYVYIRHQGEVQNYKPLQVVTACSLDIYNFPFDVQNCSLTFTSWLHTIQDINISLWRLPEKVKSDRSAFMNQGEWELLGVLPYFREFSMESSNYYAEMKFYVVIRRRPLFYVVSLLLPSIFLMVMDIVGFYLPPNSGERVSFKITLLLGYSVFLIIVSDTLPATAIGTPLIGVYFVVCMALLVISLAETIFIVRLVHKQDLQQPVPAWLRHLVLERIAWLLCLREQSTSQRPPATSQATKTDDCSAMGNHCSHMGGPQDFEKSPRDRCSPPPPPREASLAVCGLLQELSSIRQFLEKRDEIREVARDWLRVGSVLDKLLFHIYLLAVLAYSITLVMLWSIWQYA
Experimental: Human 5-HT3A receptor cDNA was linearized using restriction enzyme XhoI. In vitro transcription was performed using an mMESSAGE mMACHINE T7 Transcription Kit (Thermo Fisher Scientific, Waltham, MA, USA). The final mRNA product was dissolved in 1X Diethyl Pyrocarbonate (RNase-free water) at a final concentration of 1 μg/μL and kept in a deep-freezer at −80 °C until used.
Xenopus oocytes were used in this study as cells for expression of human 5-HT3A receptor. All female frogs used in this experiment were obtained from the Korean Xenopus Resource Center for Research (KXRCR000001). Xenopus management followed the guideline of Chonnam National University institution guidelines (CNU IACUC-YB-2016-07, July 2016). Xenopus oocytes were extracted during ice incubation state and isolated as single oocytes using collagenase II (2 mg/mL) in OR2 buffer (82.5 mM NaCl, 2 mM KCl, 1 mM MgCl2, 5 mM HEPES, pH 7.4). Isolated oocytes were incubated with ND96 incubation buffer (96 mM NaCl, 2 mM KCl, 1 mM MgCl2, 1.8 mM CaCl2, 5 mM HEPES, 2.5 mM sodium pyruvate, and […], pH 7.4) at 18 °C until the experiment was performed. Human 5-HT3A receptor mRNA was injected into oocytes using a nanoinjector (Drummond Scientific, Broomall, PA, USA) with a mineral-filled 10 μL microdispenser (VWR, Piscataway, NJ, USA).
To confirm the KAE activity on the human 5-HT3A receptor, a two-electrode voltage clamp (OC-725C; Warner Instruments, Hamden, CT, USA) with a Digitata 1550A was used. For the experiment, induced-inward current was converted to digital data with pClamp 10 software (Axon Instruments, Union City, CA, USA). […]
The voltage relationship experiment for confirming the relationship between induce-inward current and voltage, the voltage was varied from −80 mV to +60 mV using a ramp protocol. […] All recording data were analyzed using Clampfit 9.0 (Molecular Devices, San Jose, CA, USA). […]
All presented experiments were performed at least three times for scientific verification. […] Induced-inward current data were analyzed with SigmaPlot 10.0 software (Systat Software, Inc., San Jose, CA, USA). […]

[2] = target: T2, human 5-HT3A receptor D177A+F199A double mutant (Homo sapiens, UniProt P46098, D199A/F221A); test: Two-electrode voltage clamp, I5-HT inhibition, D177A+F199A double mutant; format: cell-based
T2 sequence (P46098 24-478 D199A/F221A): T1 sequence (P46098 24-478 V202A) with D176A, A179V, F198A
Experimental: Xenopus oocytes were used in this study as cells for expression of human 5-HT3A receptor. All female frogs used in this experiment were obtained from the Korean Xenopus Resource Center for Research (KXRCR000001). […] Xenopus oocytes were extracted during ice incubation state and isolated as single oocytes using collagenase II (2 mg/mL) in OR2 buffer (82.5 mM NaCl, 2 mM KCl, 1 mM MgCl2, 5 mM HEPES, pH 7.4). Isolated oocytes were incubated with ND96 incubation buffer (96 mM NaCl, 2 mM KCl, 1 mM MgCl2, 1.8 mM CaCl2, 5 mM HEPES, 2.5 mM sodium pyruvate, and 50 mg/mL gentamycin, pH 7.4) at 18 °C until the experiment was performed. Human 5-HT3A receptor mRNA was injected into oocytes using a nanoinjector (Drummond Scientific, Broomall, PA, USA) with a mineral-filled 10 μL microdispenser (VWR, Piscataway, NJ, USA).
To confirm the KAE activity on the human 5-HT3A receptor, a two-electrode voltage clamp (OC-725C; Warner Instruments, Hamden, CT, USA) with a Digitata 1550A was used. For the experiment, induced-inward current was converted to digital data with pClamp 10 software (Axon Instruments, Union City, CA, USA). All experiments were performed at room temperature using an oocyte clamp equipped with Digidata. The membrane holding potential was −80 mV.
The voltage relationship experiment for confirming the relationship between induce-inward current and voltage, the voltage was varied from −80 mV to +60 mV using a ramp protocol. Each microelectrode was filled with 3 M KCl having a resistance of 0.2 MΩ. Serotonin and KAE applied in the experiment were diluted in ND96 bath solution (96 mM NaCl, 2 mM KCl, 1 mM MgCl2, 1.8 mM CaCl2, and 5 mM HEPES, pH 7.5) to specified concentration. The rate of application of the reagent was 2 mL per minute. All recording data were analyzed using Clampfit 9.0 (Molecular Devices, San Jose, CA, USA).
Point mutation was performed using Pfu DNA polymerase (Quikchange II Site-Directed Mutagenesis Kit). Chimeric primer design for PCR was performed under appropriate primer design guidelines. To remove methylated cDNA, Dpn I was used. Transformation of the mutated DNA used pGEM vector. pDNA was purified using a miniprep protocol. […]

O=c1c(O)c(-c2ccc(O)cc2)oc2cc(O)cc(O)c12 [KAE, kaempferol]
IC50 [1]: 45.5 ± 12.9 µM | n (Hill coefficient) ([1]; I180A, −80 mV): 1.8 ± 0.6 | Emax ([1]; I180A, −80 mV, read-out: Vmax): 89.5 ± 12.1% | n (Hill coefficient) ([2]; D177A+F199A, −80 mV): 1.3 ± 0.4 | IC50 ([2]; D177A+F199A, −80 mV, Table 1): 42.9 ± 10.2 µM | Vmax ([2]; D177A+F199A, −80 mV, Table 1): 11.9 ± 1.2% | Imax ([2]; D177 and F199 double-mutant, Figure 5D): 11.9 ± 1.2%
